Reference: US4296032A (priority 1979, dated 1981)

How the values were obtained:
Type in all cases: cell-based
Proteus sp. C889 = assay: MIC of ampicillin in the presence of the inhibitor, Proteus sp. C889
Method: (§1) The MIC of ampicillin was determined in the presence of the pivaloyloxymethyl ester of 6-β-bromopenicillanic acid (inhibitor).

Staph. aureus Russell = assay: MIC of ampicillin in the presence of the inhibitor, Staph. aureus Russell
Method: as §1

E. coli JT. 39 = assay: MIC of ampicillin in the presence of the inhibitor, E. coli JT. 39
Method: as §1

Klebsiella aerogenes E70 = assay: MIC of ampicillin in the presence of the inhibitor, Klebsiella aerogenes E70
Method: as §1

With CC(C)(C)C(=O)OCOC(=O)[C@@H]1N2C(=O)[C@@H](Br)[C@H]2SC1(C)C [pivaloyloxymethyl 6β-bromopenicillanate] the “MIC of Ampicillin” value (Proteus sp. C889; inhibitor conc. 5 μg/ml) was 31 µg/mL, the “MIC of Ampicillin” value (Proteus sp. C889; inhibitor conc. 20 μg/ml) was 8 µg/mL and the “MIC of Ampicillin” value (Staph. aureus Russell; inhibitor conc. 5 μg/ml) was 3.1 µg/mL. The “MIC of Ampicillin” value (Staph. aureus Russell; inhibitor conc. 20 μg/ml) was 0.78 µg/mL, the “MIC of Ampicillin” value (E. coli JT. 39; inhibitor conc. 5 μg/ml) was 4 µg/mL and the “MIC of Ampicillin” value (E. coli JT. 39; inhibitor conc. 20 μg/ml) was 2 µg/mL. The “MIC of Ampicillin” value (Klebsiella aerogenes E70; inhibitor conc. 5 μg/ml) was 12.5 µg/mL and the “MIC of Ampicillin” value (Klebsiella aerogenes E70; inhibitor conc. 20 μg/ml) was 6.2 µg/mL.
